Article PMC7838189, “Natural podophyllotoxin analog 4DPG attenuates EMT and colorectal cancer progression via activation of checkpoint kinase 2” (Cell Death Discovery, 2021)

Key:
[1] = test system: HCT-116/5-FU-R cells; experiment: Immunocytochemistry of Vimentin; format: cell-based; details: 300 nM, 48 h
Source text: (§1) 4DPG, a podophyllotoxin class of natural product anticancer compound (Supplementary Fig. S2A) has been recently described by our research group for its potent antitumor and anti-metastatic properties against aggressive cancers[31],[32]. Further, 4DPG augments phosphorylation and activation of Chk2 (Thr68) leading to suppression of EMT and invasiveness of p53-defective cancer cells. To investigate the effect of 4DPG on phosphorylation and expression levels of Chk2 in HCT-116/5-FU-R, SW-620/5-FU-R, and HT-29/5-FU-R cells, we treated these cells for 48 h with increasing concentrations of the compound, and whole-cell lysates were subjected to western blotting analysis. […] To determine the effect of 4DPG on the invasion abilities of these 5-FU-R cells, we performed in situ fluorescent gelatin degradation assay following our pre-standardized protocol[31],[37]. In physiological conditions, this assay mimics the extracellular matrix degradation by aggressive tumor cells undergoing invasion–metastasis process.
Fig. 2 4DPG activates Chk2 and attenuates EMT in 5-FU-R CRC cells. […] G Quantification of the area of degradation through Image J software. n = 3, error bars, mean ± SD; ***P < 0.001. […]

[2] = test system: SW-620/5-FU-R cells; experiment: Western blotting of Chk2 and EMT markers after 4DPG; format: cell-based; details: 48 h
Source text: as §1
(§2) Fig. 2 4DPG activates Chk2 and attenuates EMT in 5-FU-R CRC cells. A Western blotting analysis results portraying protein expression of p-Chk2 (Thr68) and Chk2 in HCT-116/5-FU-R and SW-620/5-FU-R cells in response to increasing concentrations of 4DPG, treated for 48 h. β-Actin expression was considered as endogenous loading control. B Densitometry analysis showing relative protein expression of western blot bands presented above. n = 3, error bars: mean ± SD; ***P < 0.001. C Western blots depicting protein expression of EMT markers in HCT-116/5-FU-R and SW-620/5-FU-R cells in response to increasing concentrations of 4DPG, treated for 48 h. β-Actin expression was considered as endogenous loading control. […] E Immunocytochemistry results displaying the protein expression levels of Vimentin in HCT-116/5-FU-R and SW-620/5-FU-R cells, treated with vehicle and/or 4DPG (300 nM) for 48 h. Scale bars: 50 µm. F In situ fluorescent gelatin degradation assay results showing the invadopodia/footprints of invaded SW-620/5-FU-R cells treated with vehicle and/or 4DPG at the indicated concentration for 48 h. Blue stains over the green background display DAPI staining of nuclei of cells. G Quantification of the area of degradation through Image J software. n = 3, error bars, mean ± SD; ***P < 0.001.
(§3) We adhered to the previously published protocol for western blotting. To sum up, cells were exposed to the respective treatments (mentioned in figure legends). Post-treatment, cells were lysed with cell lysis buffer, and cell lysates were collected after centrifugation. Bradford assay was performed to quantify the protein concentration. Equal amount of protein was taken from each sample to carry out the western blot analysis. SDS-PAGE was employed to separate the proteins that were later transferred onto PVDF membranes (Millipore, Billerica, MA). Next, the membranes were blocked with 5% skim milk and subsequently incubated with the specific primary antibodies (1:1000 dilution), either for 3 h at room temperature or overnight at 4 °C. Later, the blots were washed thoroughly with TBST and probed with the respective secondary antibodies (1:2000 dilution) coupled with horseradish peroxidase for 1 h. Following thorough washing, the membranes were visualized using enhanced chemiluminescence reagent (Millipore) and captured onto Biomax light film (The Eastman Kodak Co., Rochester, NY).

[3] = test system: HCT-116/5-FU-R cells; experiment: as above; format: cell-based; details: 48 h
Source text: as §1, §2, §3

[4] = Distribution coefficient determination; format: physicochemical; details: pH 7.4
Procedure: Solubility and distribution coefficient are among the major physicochemical properties of a drug that greatly determine its absorption in physiological compartments. […] The distribution coefficient (logD, pH 7.4) of 4DPG was determined to be 0.815 ± 0.19, which indicates the slightly lipophilic nature of the molecule. For administration to animals, the appropriate quantity of 4DPG was formulated in the pre-calculated volume of saline with the help of a solubilizer (Tween-80). Next, to assess the hemocompatibility of 4DPG and establish if the compound could be considered safe for intravenous (i.v.) administration, we performed in vitro hemolysis assay by incubating the RBCs with increasing concentrations of the molecule.
The distribution coefficient, solubility, and hemocompatibility of 4DPG was determined adopting our previously described protocol[37],[40]. For hemolysis assay, increasing concentrations (5, 10, and 20 µg/mL) of 4DPG were employed. Distilled water (DW) and PBS were considered as […].

[5] = increasing concentrations, immunoblot

Q: What does the source list for `COc1cc([C@@H]2c3cc4c(cc3C[C@H]3COC(=O)[C@@H]32)OCO4)cc(OC)c1O[C@@H]1O[C@H](CO)[C@@H](O)[C@H](O)[C@H]1O` [4DPG, 4′-demethyl-deoxypodophyllotoxin glucoside]?
A: Vimentin expression level (immunocytochemistry) [1]: considerable decrease; increase in p-Chk2 (Thr68) level ([2]; 300 nM (sub-toxic), vs vehicle): 11.2 fold; expression of Chk2 (total) ([2]; vs vehicle): did not alter significantly; amplification of E-cadherin ([2]; increasing concentrations): ≤ 10.2 fold; amplification of TIMP-1 ([2]; increasing concentrations): ≤ 7.2 fold; p-Vimentin (ser38), Vimentin, Twist1 and MMP-2 expression [2, 5]: remarkable downregulation; increase in p-Chk2 (Thr68) level ([3]; 300 nM (sub-toxic), vs vehicle): 12 fold; expression of Chk2 (total) ([3]; vs vehicle): did not alter significantly; amplification of E-cadherin ([3]; increasing concentrations): ≤ 12.8 fold; amplification of TIMP-1 ([3]; increasing concentrations): up to 12.5 fold; p-Vimentin (ser38), Vimentin, Twist1 and MMP-2 expression [3, 5]: remarkable downregulation; distribution coefficient (logD) [4]: 0.815 ± 0.19
